Structures can show the parent of a compound that is named as a salt.
Experiments:
rat's sciatic nerve = assay: Local anesthetic effect after injection near the rat sciatic nerve (von Frey stimulation; Postural Extensor Thrust for motor function); format: in vivo; settings: SD rats, 0.5 mL near sciatic nerve, compounds 20 mmol/mL; for Duration of motor block: Postural Extensor Thrust; for Duration of motor block / Duration of sensory block: levobupivacaine 0.75%, lidocaine 2%; for Local anesthesia onset time: levobupivacaine 0.75% (22 mmol/L), lidocaine 2% (74 mmol/L); for Duration of sensory block: von Frey
Procedure: Dosage: for lidocaine group, lidocaine was formulated with distilled water into a solution at the concentration of 2% (74 mmol/L); for levobupivacaine group, levobupivacaine was formulated with distilled water into a solution at the concentration of 0.75% (22 mmol/L); the compound of the present invention was formulated with distilled water into a solution at the concentration of […].
The injection volume for each rat was 0.5 mL, which was guided by a nerve locator and injected near the rat's sciatic nerve. Using von Frey stimulator, the rats were stimulated the soles of the feet in the injected side, to observe the effect of local anesthesia. Meanwhile, Postural Extensor Thrust (PET) was used to evaluate the motor function of the rat: the rat was lifted vertically and the hindlimb in the injected side pedaled on the platform of the electronic balance. […] When the limb was completely paralyzed, the reading was the limb's own weight, about 20 g. If the measured value was more than half of the difference between the baseline and the limb weight, the motor function was regarded as recovery, and if the value was […], the motor function was regarded as loss.

back skin of SD rat = assay: Local anesthetic effect by subcutaneous infiltration (back skin, Von Frey fiber 100 g); format: in vivo; settings: SD rats, 0.5 mL subcutaneous in saline; compounds 6 mmol/L, controls 0.75% (22 mmol/L) and 2% (74 mmol/L)
Procedure: After the back of SD rat weighing 250-300 g (half female and half male) was shaved and disinfected, a circle with a diameter of about 1.5 cm was drawn on the side of the exposed back, and the circle is divided into 6 equal parts. […] Among the Von Frey fiber yarns, the one with a strength of 100 g was bound to the needle for local skin stimulation. One minute After the drug was injected, the above method was used to stimulate in 6 divisions. […] If back skin contraction was observed, the local anesthetic effect was considered as loss. […] Each compound was tested with 10 rats.

Compound | Duration of motor block (rat's sciatic nerve) | Local anesthesia onset time (rat's sciatic nerve) | Duration of sensory block (rat's sciatic nerve) | Duration of local anesthesia (median) (back skin of SD rat) | Local anesthesia onset time (median) (back skin of SD rat)
CCCCC[N+](CCCCS)(CCCCCCCN1CCCCCC1C(=O)Nc1c(C)cccc1C)CC(=O)Nc1c(C)cccc1C (stereo not drawn) [Example 69 product] | 10 h | 1 min | 62 h | 80 h | 1 min
Cc1cccc(C)c1NC(=O)C[N+]1(CCCCCCN2CCCCC2C(=O)Nc2c(C)cccc2C)CCOCC1 (stereo not drawn) [Example 52 product] | 15 h | 2 min | 56 h | 85 h | 3 min
CCCCC[N+](CCCCC)(CCCCCCN1CCC1C(=O)Nc1c(C)cccc1C)CC(=O)Nc1c(C)cccc1C (stereo not drawn) [Example 65 product] | 19 h | 5 min | 59 h | 68 h | 1 min
CCCCC[N+](CCCO)(CCCCCCN1CCCCC1C(=O)Nc1c(C)cccc1C)CC(=O)Nc1c(C)cccc1C.[Br-] (stereo not drawn) [Example 14 product] | 13 h | 5 min | 41 h | 75 h | 2 min
CCCCC[N+](CCCCCCCCN1CCCCCCC1C(=O)Nc1c(C)cccc1C)(CCOCC)CC(=O)Nc1c(C)cccc1C (stereo not drawn) [Example 25 product] | 12 h | 5 min | 44 h | 82 h | 3 min
Cc1cccc(C)c1NC(=O)C[N+](CO)(CCCCO)CCCCCCN1CCCCC1C(=O)Nc1c(C)cccc1C.[Br-] (stereo not drawn) [Example 19 product] | 10 h | 5 min | 39 h | 62 h | 1 min
CCCCN1CCCC[C@H]1C(=O)Nc1c(C)cccc1C [0.75% levobupivacaine hydrochloride, levobupivacaine hydrochloride, reference compound] | 2.5 h | 1 min | 2.5 h | 7 h | 1 min
Cc1cccc(C)c1NC(=O)C[N+](CCCCO)(CCCCO)CCCCCCCCN1CCCCCCC1C(=O)Nc1c(C)cccc1C (stereo not drawn) [Example 44 product] | 16 h | 5 min | 69 h | 51 h | 2 min
CCCCC[N+](CCCCC)(CCCCCCCN1CCCCCC1C(=O)Nc1c(C)cccc1C)CC(=O)Nc1c(C)cccc1C (stereo not drawn) [Example 68 product] | 21 h | 1 min | 79 h | 73 h | 3 min
COCC[N+](CCCCCCN1CCCCC1C(=O)Nc1c(C)cccc1C)(CCOC)CC(=O)Nc1c(C)cccc1C.[Br-] (stereo not drawn) [Example 21 product] | 13 h | 5 min | 47 h | 64 h | 1 min
Cc1cccc(C)c1NC(=O)C[N+]1(CCCCCCN2CCCCC2C(=O)Nc2c(C)cccc2C)CCOC(C)C1 (stereo not drawn) [Example 54 product] | 15 h | 5 min | 66 h | 69 h | 2 min
CCCCCCCCCC[N+](CO)(CCOCCN1CCCCC1C(=O)Nc1c(C)cccc1C)CC(=O)Nc1c(C)cccc1C (stereo not drawn) [Example 72 product] | 10 h | 1 min | 65 h | 72 h | 1 min

Source: patent US20220135526A1, “QUATERNARY AMMONIUM SALT COMPOUND, PREPARATION METHOD THEREFOR AND USE THEREOF” (WEST CHINA HOSPITAL, SICHUAN UNIVERSITY, priority 2019, published 2022)
